Laboratory results reported in PMC9645260, “Small-molecule inhibitors of P-Rex guanine-nucleotide exchange factors” (Small GTPases, 2022).

Key:
full-length P-Rex1 = biological target: T1, full-length P-Rex1 (Homo sapiens, UniProt Q8TCU6); assay: Liposome-based GEF activity assay, PIP3-stimulated full-length P-Rex1; format: biochemical; details: for effect on PIP3-stimulated Rac-GEF activity of full-length P-Rex1: 1, 5 and 10 µM, Rac1 or Rac2 as substrate
T1 construct: Full-length N-terminally EE-tagged P-Rex1, P-Rex2, the P-Rex1 DH and DHPH domains and the P-Rex2 DH domain were produced in Sf9 cells; made in house; host or cells: Sf9 cells (baculovirus)
T1 sequence (Q8TCU6 whole entry, the tested form may be a part): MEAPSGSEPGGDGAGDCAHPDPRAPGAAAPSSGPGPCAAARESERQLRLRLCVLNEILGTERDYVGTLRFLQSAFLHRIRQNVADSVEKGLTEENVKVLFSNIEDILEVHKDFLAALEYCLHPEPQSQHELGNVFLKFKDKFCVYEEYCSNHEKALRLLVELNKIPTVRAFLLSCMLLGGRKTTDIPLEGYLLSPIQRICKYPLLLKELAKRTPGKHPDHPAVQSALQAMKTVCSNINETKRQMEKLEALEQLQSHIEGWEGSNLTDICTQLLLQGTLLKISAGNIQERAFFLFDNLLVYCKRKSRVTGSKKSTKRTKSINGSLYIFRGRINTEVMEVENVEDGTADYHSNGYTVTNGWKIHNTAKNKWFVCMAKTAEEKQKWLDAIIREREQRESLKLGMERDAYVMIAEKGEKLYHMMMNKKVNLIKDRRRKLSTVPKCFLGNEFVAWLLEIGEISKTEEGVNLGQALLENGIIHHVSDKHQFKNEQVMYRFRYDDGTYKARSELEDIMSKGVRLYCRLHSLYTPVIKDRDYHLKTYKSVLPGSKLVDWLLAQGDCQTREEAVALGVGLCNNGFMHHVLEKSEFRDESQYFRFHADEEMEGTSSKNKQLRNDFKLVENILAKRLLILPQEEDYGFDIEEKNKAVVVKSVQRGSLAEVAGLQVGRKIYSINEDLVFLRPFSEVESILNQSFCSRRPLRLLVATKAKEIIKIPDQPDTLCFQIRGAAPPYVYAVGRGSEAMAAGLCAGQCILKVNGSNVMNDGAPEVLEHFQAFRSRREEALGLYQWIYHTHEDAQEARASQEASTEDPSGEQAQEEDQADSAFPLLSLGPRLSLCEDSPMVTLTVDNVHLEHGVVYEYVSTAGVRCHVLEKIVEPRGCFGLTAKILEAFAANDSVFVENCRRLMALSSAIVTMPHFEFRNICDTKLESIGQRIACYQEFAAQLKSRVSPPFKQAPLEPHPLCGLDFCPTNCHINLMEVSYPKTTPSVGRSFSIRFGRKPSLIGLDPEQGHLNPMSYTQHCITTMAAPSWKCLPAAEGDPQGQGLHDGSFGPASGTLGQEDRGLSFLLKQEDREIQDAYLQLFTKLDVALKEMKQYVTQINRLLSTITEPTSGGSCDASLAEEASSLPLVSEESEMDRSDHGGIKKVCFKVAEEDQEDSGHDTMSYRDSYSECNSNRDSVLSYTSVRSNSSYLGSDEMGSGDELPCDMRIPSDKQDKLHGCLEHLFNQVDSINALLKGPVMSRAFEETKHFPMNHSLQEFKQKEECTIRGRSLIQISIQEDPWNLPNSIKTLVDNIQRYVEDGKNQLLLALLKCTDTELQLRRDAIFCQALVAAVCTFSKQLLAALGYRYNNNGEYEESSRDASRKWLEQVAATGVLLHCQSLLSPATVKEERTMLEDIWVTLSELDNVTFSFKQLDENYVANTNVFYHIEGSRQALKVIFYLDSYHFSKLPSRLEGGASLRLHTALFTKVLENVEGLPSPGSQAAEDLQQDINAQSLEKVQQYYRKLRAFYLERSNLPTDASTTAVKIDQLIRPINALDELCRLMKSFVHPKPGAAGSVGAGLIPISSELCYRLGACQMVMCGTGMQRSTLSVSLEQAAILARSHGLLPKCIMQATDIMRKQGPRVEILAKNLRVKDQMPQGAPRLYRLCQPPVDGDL
From the text: All small GTPases and GEFs used were human recombinant proteins. EE-Rac1, EE-Rac2, GST-Cdc42 or GST-RhoA were expressed in Sf9 cells by baculoviral transduction and purified using their epitope tag in their post-translationally prenylated form using Triton X-114 phase separation, essentially as previously described. Briefly, frozen pellets from a 1 litre culture of Sf9 cells transduced with high-titre baculovirus expressing the small GTPase were resuspended in ice-cold Sf9-cell lysis buffer 1 (1x PBS, 40 mM HEPES pH 7.5 at RT, 5 mM MgCl2, 10 mM EGTA, 300 µM GDP, 1 mM DTT, 200 µM PMSF, 20 μg/ml each of leupeptin, pepstatin A, aprotinin and antipain) and lysed by sonication. Triton X-114 was added (to 1% final concentration), and samples were ultracentrifuged at 118,000 × g for 50 min at 4°C. The supernatant was warmed at 37°C until cloudy (30–60 seconds) and centrifuged at 1300 × g for 2 min at 37°C. The upper phase containing non-lipid modified GTPase was discarded and replaced with ice-cold Sf9-cell lysis buffer. The warming/centrifugation steps were repeated twice and lipid-modified GTPase resuspended in ice-cold Sf9-cell lysis buffer 1 supplemented with Triton X-100 (1% final concentration), followed by ultracentrifugation at 118,000 × g for 50 min at 4°C. For EE-tagged GTPases, supernatants were incubated with anti-EE antibody covalently coupled to protein G-Sepharose beads (anti-EE beads, Onyx Pharmaceuticals) and incubated with end-over-end rotation for 90 min on ice. Beads were washed 3 times in wash buffer (PBS, 5 mM MgCl2, 1 mM DTT, 10 μM GDP, 1 mM EGTA, 0.2% Triton X-100) and 5x in elution buffer (40 mM HEPES pH 7.5, 150 mM NaCl, 5 mM MgCl2, 1 mM EGTA, 1 mM DTT, 10 µM GDP). Protein was eluted by three incubations with elution buffer containing peptide Ac-EEYMPME (Activotec, Comberton, UK) and cholate (first 1%, then twice 0.5%) for 20 min on ice. For GST-tagged GTPases, supernatants were incubated with glutathione Sepharose beads and were eluted with glutathione in the same manner. Proteins were concentrated in a YM-10 Centricon (Millipore) at 5000 × g, 4°C. Protein concentration and purity was determined by coomassie staining of SDS-PAGE gels. For use in the mant-GTP assay, EE-Rac 1 was expressed in BL21 (DE3) bacteria (NEB, C25271), by induction with 0.5 mM IPTG overnight at 18°C. Bacterial pellets from 500 ml cultures were resuspended in 20 ml bacterial lysis buffer (40 mM Hepes, pH 7.5 at 4°C, 150 mM NaCl, 1% Triton X-100, 5 mM MgCl2, 1 mM DTT, 300 μM GDP, 200 µM PMSF, and 20 μg/ml each of leupeptin, pepstatin A, aprotinin and antipain) and were lysed by sonication. 5 μg/ml DNAse and 5 μg/ml RNAse were added and the lysate incubated on ice for 10 min. […]

Rac1 or Rac2 = assay: Basal GTP-loading of Rac in the absence of P-Rex1 (liposome-based assay); format: biochemical, human; details: 10 µM
From the text: All small GTPases and GEFs used were human recombinant proteins. EE-Rac1, EE-Rac2, GST-Cdc42 or GST-RhoA were expressed in Sf9 cells by baculoviral transduction and purified using their epitope tag in their post-translationally prenylated form using Triton X-114 phase separation, essentially as previously described. Briefly, frozen pellets from a 1 litre culture of Sf9 cells transduced with high-titre baculovirus expressing the small GTPase were resuspended in ice-cold Sf9-cell lysis buffer 1 (1x PBS, 40 mM HEPES pH 7.5 at RT, 5 mM MgCl2, 10 mM EGTA, 300 µM GDP, 1 mM DTT, 200 µM PMSF, 20 μg/ml each of leupeptin, pepstatin A, aprotinin and antipain) and lysed by sonication. Triton X-114 was added (to 1% final concentration), and samples were ultracentrifuged at 118,000 × g for 50 min at 4°C. The supernatant was warmed at 37°C until cloudy (30–60 seconds) and centrifuged at 1300 × g for 2 min at 37°C. The upper phase containing non-lipid modified GTPase was discarded and replaced with ice-cold Sf9-cell lysis buffer. The warming/centrifugation steps were repeated twice and lipid-modified GTPase resuspended in ice-cold Sf9-cell lysis buffer 1 supplemented with Triton X-100 (1% final concentration), followed by ultracentrifugation at 118,000 × g for 50 min at 4°C. […] Protein concentration and purity was determined by coomassie staining of SDS-PAGE gels. […]

Compound | effect on PIP3-stimulated Rac-GEF activity of full-length P-Rex1 (full-length P-Rex1) | effect on basal GTP-loading of Rac1 or Rac2 in the absence of P-Rex1 (Rac1 or Rac2) | reduction of PIP3-stimulated Rac-GEF activity of full-length P-Rex1 (full-length P-Rex1; 10 µM, 50 nM P-Rex1, 100 nM prenylated Rac1, 10 µM PIP3) [%]
CC1CCC(C(C)C)c2nn(C(=O)/C=C\c3ccccc3)c(-c3cccc4ccccc34)c21 (centres unmarked) [#10] | inhibited | neither compound affected | –
COc1ccc(-c2[nH]nc3c2C(c2ccc(-c4ccc(Cl)cc4)o2)C(C#N)=C(N)O3)cc1 (centres unmarked) [PREX-in1, 6-amino-4-[5-(4-chlorophenyl)-2-furyl]-3-(4-methoxyphenyl)-2,4-dihydropyrano[2,3-c]pyrazole-5-carbonitrile] | inhibited | neither compound affected | 56
